Assay [1] relates to OCT2. Set-up: method as in ref 15 Yang et al. The note with it: rat kidneys; ref 15 Yang et al.; cited from earlier work.
Assay [2] deals with T1, hMATE1 (Homo sapiens, UniProt Q96FL8).
T1 construct: expressed in transfected cells; host or cells: HEK-293 (293) cells, pEBTetD plasmid, doxycycline-induced
T1 sequence (Q96FL8 1-570): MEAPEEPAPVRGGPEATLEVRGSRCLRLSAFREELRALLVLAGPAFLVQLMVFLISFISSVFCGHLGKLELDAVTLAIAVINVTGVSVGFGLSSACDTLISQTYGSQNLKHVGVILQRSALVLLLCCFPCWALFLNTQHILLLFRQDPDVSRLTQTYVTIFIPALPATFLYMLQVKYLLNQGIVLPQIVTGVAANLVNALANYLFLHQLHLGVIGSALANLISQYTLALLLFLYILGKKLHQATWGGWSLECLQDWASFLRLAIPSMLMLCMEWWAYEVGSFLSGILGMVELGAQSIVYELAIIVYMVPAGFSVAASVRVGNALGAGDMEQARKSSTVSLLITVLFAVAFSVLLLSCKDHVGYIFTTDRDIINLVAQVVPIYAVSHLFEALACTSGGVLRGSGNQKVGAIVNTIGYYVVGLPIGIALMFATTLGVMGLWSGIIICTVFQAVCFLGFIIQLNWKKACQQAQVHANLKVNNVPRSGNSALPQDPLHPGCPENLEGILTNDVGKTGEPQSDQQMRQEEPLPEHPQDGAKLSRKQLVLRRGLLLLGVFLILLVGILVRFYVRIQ
Nature of the assay: Inhibition of hMATE1-mediated MPP+ uptake, stably transfected 293 cells. The format is cell-based. Particulars: substrate 3 µM MPP+, median (95% CI). The text has this: (§1) We characterized the inhibitory potential of iohexol on major drug transporters recommended by regulatory agencies, which were previously assessed in a clinical transporter phenotyping cocktail study. These transporters include hOAT1, hOAT3, hOCT1, hOCT2, hMATE1, hMATE2K, human organic anion transporter polypeptides (hOATP)1B1, hOATP1B3, and human multidrug resistance protein (hMDR)1. Additionally, we investigated whether iohexol is a substrate for any of the renal transporters among these, including hOAT1/3, hOCT1/2, and hMATE1/2K. Cell‐based uptake assays were used to assess the activities of hOAT1/3, hOCT1/2, hMATE1/2K, and hOATP1B1/1B3. Inside‐out membrane vesicle uptake assays were used to evaluate the activity of hMDR1.
(§2) To determine the maximal inhibitory potential of iohexol, intracellular accumulation of a standard substrate was measured with and without the clinically relevant highest concentrations of iohexol. Control inhibitors were tested in each experiment.
(§3) In all subsequent in vitro studies, control experiments were conducted to validate the results. These included positive controls for substrates and inhibitors, as well as cells either without transporter expression or transfected with an empty vector, and control vesicles. Each condition, including cells or vesicles with the transporter and their respective controls, was analyzed in at least three replicates. For detailed information on materials, methods, and data analysis techniques used, refer to the Supporting Information. […]
(§4) R version 4.2.1 (R Foundation for Statistical Computing, Vienna, Austria) was used for statistical evaluations and data visualization. The data analysis approach for the in vitro study was detailed by Hsin CH et al..^1 In brief, for transport assays, the initial uptake rate was calculated by normalizing the substrate concentration to both the protein concentration and the incubation time for each dish or well. The transporter-mediated uptake rate (net uptake) was determined by performing an element-wise subtraction of uptake rates from different conditions. […]

Assay [3] deals with T2, hOCT1 (Homo sapiens, UniProt O15245).
T2 construct: expressed in transfected cells; host or cells: HEK-293 (293) cells, pEBTetD plasmid, doxycycline-induced
T2 sequence (O15245 1-554): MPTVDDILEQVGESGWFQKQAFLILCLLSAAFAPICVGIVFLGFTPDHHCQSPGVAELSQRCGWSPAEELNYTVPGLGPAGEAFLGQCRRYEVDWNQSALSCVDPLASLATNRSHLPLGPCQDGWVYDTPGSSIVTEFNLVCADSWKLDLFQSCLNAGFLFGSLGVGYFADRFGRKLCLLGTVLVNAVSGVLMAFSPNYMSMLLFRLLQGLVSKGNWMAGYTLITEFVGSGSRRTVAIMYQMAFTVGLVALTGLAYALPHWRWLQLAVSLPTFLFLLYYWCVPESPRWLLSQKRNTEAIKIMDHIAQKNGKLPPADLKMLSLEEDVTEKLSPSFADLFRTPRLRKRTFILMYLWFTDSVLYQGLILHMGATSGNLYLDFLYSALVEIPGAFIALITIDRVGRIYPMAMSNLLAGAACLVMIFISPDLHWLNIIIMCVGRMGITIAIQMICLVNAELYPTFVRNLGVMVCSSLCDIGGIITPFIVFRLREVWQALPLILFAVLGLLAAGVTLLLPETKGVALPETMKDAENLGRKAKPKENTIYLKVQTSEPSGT
Nature of the assay: Inhibition of hOCT1-mediated metformin uptake, stably transfected 293 cells. It is filed as cell-based. Particulars: substrate 50 µM metformin, median (95% CI).
From the text: as §1, §2, §3, §4

Where [4] appears, read: HEK293, 1 mM iohexol, read-out: Inhibitory effect (% reduction of specific activity).
Setting [5] is: HEK293, 20 mM iohexol, read-out: Inhibitory effect (% reduction of specific activity).

Results on one molecule are retold here after article PMC11788587, “Validating Low‐Dose Iohexol as a Marker for Glomerular Filtration Rate by In Vitro and In Vivo Studies” (Clinical and Translational Science, 2025).

Take `CC(=O)N(CC(O)CO)c1c(I)c(C(=O)NCC(O)CO)c(I)c(C(=O)NCC(O)CO)c1I` (stereo not shown) [iohexol]: in assay [1], the “Expression of OCT2” value is “downregulated”. Moreover, the “Inhibitory effect (% reduction of specific activity)” value in assay [2] (20 mM iohexol) and in assay [3] (20 mM iohexol) was “no notable inhibitory effects” throughout. Moreover, the inhibition at 1000 µM was 5.4% in assay [2] (setting [4]) and -9.8% in assay [3] (setting [4]). The inhibition at 20000 µM is 12% in assay [2] (setting [5]) and -22% in assay [3] (setting [5]).
